Columns and labels:
Aβ1-40 peptide secretion = assay: Quantification of secreted Aβ1-40 by ELISA in SY5Y-APP695WT cells; assay type: cell-based; conditions: Homo sapiens; concentration inhibiting 50% of Aβ1-40 peptide secretion in SY5Y cells; 24 h treatment; mean ± SD of at least two experiments in triplicate
Experimental: (§1) Cell culture and treatment. The human neuroblastoma cell line […] was maintained in Dulbecco's modified Eagle medium (DMEM, high glucose, pyruvate-GIBCO by Life Technologies) supplemented with 10% foetal bovine serum, 2 mM L-glutamine, 1 mM non-essential amino acids and penicillin/streptomycin (GIBCO by Life Technologies) at 37° C. in a 5% CO2 humidified incubator. […] cells were maintained in 75 cm^2 culture flasks (Falcon) with supplemented DMEM medium until they reached 80% of confluence 24 h before treatment. For compounds treatment, a 10 mM stock solution was diluted in freshly supplemented DMEM medium to obtain the precise final concentration of drug. Bafilomycin A1 (BafA1), the vacuolar […] type H+ ATPase inhibitor, was purchased from Merck Millipore and was used at a final dilution of 100 nM. For drug treatment, cells were plated at a rate of 5·10^5 cells per well into 12-well plates (Falcon) and cultured with 1 mL supplemented DMEM cell medium for 24 h before drug exposure. The following day, cell medium was replaced with fresh medium containing drugs diluted at the indicated concentrations. Cells were treated for 24 h. At the end of treatments, the cell medium was collected and kept at -80° C. until use for dosage. Then, cells were rinsed once with PBS and extracted in 100 μL of Laemmli buffer (10 mM Tris, 20% glycerol and 2% Sodium dodecyl sulfate) using a cell-scraper. The cell lysate was further sonicated (30 pulses of 0.5 s, 60 Hz) for 5 min. Total protein concentration was determined using the Pierce BCA Protein Assay Kit (Thermo scientific) according to the manufacturer's instructions. Samples were stored at -80° C. until analysis. Quantification of secreted Aβ1-40/1-42 and sAPPα/sAPPβ. Conditioned media of […] collected at the end of treatments were centrifuged at 1000 g for 5 min to eliminate cells debris. Aβ1-40 and Aβ1-42 peptide concentrations in […] were determined using amyloid-beta 40 and 42 Human ELISA kits (Invitrogen) according to the manufacturer's instructions after 1:10 and 1:2 dilutions of supernatants in ELISA buffer, respectively. sAPPα and sAPPβ concentrations in ng/mL were determined using the sAPPα/sAPPβ kit (Meso Scale Diagnostics, MSD®) according to the manufacturer's instructions. Compounds of the invention (compounds 24-37, 41, 44 and 51-58) were evaluated for their ability to modulate APP processing on SY5Y human neuroblastoma cell line stably expressing the neuronal isoform of human wild-type APP695 (SYSY-APPwt). Aβ levels (Aβ1-40 and Aβ1-42) after treatment with reference and tested compounds were measured by ELISA (Table 2). […] APP carboxy-terminal fragments (αCTFs and AICD) were measured by Western blot and quantified. The effect of reference and tested compounds on αCTFs and AICD are expressed as the intensity of corresponding western-blot bands resulting from the secretase cleavages.

Aβ1-42 peptide secretion = assay: Quantification of secreted Aβ1-42 by ELISA in SY5Y-APP695WT cells; assay type: cell-based; conditions: Homo sapiens; concentration inhibiting 50% of Aβ1-42 peptide secretion in SY5Y cells; 24 h treatment; mean ± SD of at least two experiments in triplicate
Experimental: as §1

CTFα = assay: APP carboxy-terminal fragment αCTF by Western blot in SY5Y-APP695WT cells; assay type: cell-based, human; conditions: CTFα increase compared to chloroquine ([CTF]compound/[CTF]CQ) at 3 μM; mean of at least three experiments
Source text: (§2) Antibodies. Primary antibodies used in this study for western-blot analysis included a homemade rabbit antiserum against the last 17 amino acids of human APP protein sequence, named APP-Cter-C17 (1/5000 in TBS-M). Anti-β-actin (1/10 000 in TBS-M) was obtained from Sigma. Anti-LC3B (1/2000 in TBS-BSA) and anti-p62/SQSTM1 (1/2000 in TBS-M) antibodies were purchased from Cell Signaling Technology. Secondary antibodies (peroxidase-labeled goat anti-rabbit IgG, 1/5000 or peroxidase-labeled horse anti-mouse IgG, 1/50000 in TBS-T) were obtained from Vector Laboratories.
(§3) Cell culture and treatment. The human neuroblastoma cell line SY5Y-APP^695WT was maintained in Dulbecco's modified Eagle medium (DMEM, high glucose, pyruvate—GIBCO by Life Technologies) supplemented with 10% foetal bovine serum, 2 mM L-glutamine, 1 mM non-essential amino acids and penicillin/streptomycin (GIBCO by Life Technologies) at 37° C. in a 5% CO2 humidified incubator. SY5Y-APP^695WT cells were maintained in 75 cm^2 culture flasks (Falcon) with supplemented DMEM medium until they reached 80% of confluence 24 h before treatment.
(§4) For drug treatment, cells were plated at a rate of 5·10^5 cells per well into 12-well plates (Falcon) and cultured with 1 mL supplemented DMEM cell medium for 24 h before drug exposure. The following day, cell medium was replaced with fresh medium containing drugs diluted at the indicated concentrations. Cells were treated for 24 h. At the end of treatments, the cell medium was collected and kept at −80° C. until use for dosage. Then, cells were rinsed once with PBS and extracted in 100 μL of Laemmli buffer (10 mM Tris, 20% glycerol and 2% Sodium dodecyl sulfate) using a cell-scraper. The cell lysate was further sonicated (30 pulses of 0.5 s, 60 Hz) for 5 min. Total protein concentration was determined using the Pierce BCA Protein Assay Kit (Thermo scientific) according to the manufacturer's instructions. Samples were stored at −80° C. until analysis.
(§5) Western Blot Analysis. Cell protein lysates were prepared for western-blot analysis by diluting the sample with 1 volume of NuPAGE® lithium dodecyl sulfate (LDS) 2× sample buffer supplemented with 20% NuPAGE® sample reducing agents (Invitrogen). Samples were heat 10 min at 100° C. 10 μg of total proteins per well were loaded onto a precast 4-12% Criterion XT Bis-Tris polyacrylamide gel (Bio-Rad) and electrophoresis was achieved after applying a tension of 150 V during 90 min using a Criterion electrophoresis Cell with the NuPAGE® MOPS SDS running buffer (1×). Proteins were transferred to a nitrocellulose membrane of […] pore size (G&E Healthcare) using the Criterion blotting system and applying a tension of 100 V for 45 min. To resolve proteins of low molecular weights such as carboxy-terminal fragments of APP, 12% Criterion XT Bis-Tris polyacrylamide gels (Bio-Rad) were used and electrophoresis was performed during 70 min at 150 V in a NuPAGE® MES SDS running buffer (1×). Proteins were transferred to a nitrocellulose membrane of 0.2 μm pore size (G&E Healthcare) at 100 V for 40 min. Molecular weights calibration was achieved using molecular weight markers (Novex and Magic Marks, Life Technologies). Protein transfer and quality were determined by a reversible Ponceau Red coloration (0.2% Xylidine Ponceau Red and 3% Trichloroacetic acid). Membranes were then blocked in 25 mM Tris-HCl pH 8.0, 150 mM NaCl, 0.1% Tween-20 (v/v) (TBS-T) and 5% (w/v) of skimmed milk (TBS-M) or 5% (w/v) of bovine serum albumin (TBS-BSA) depending on the antibody during 1 h. Membrane was rinsed three-times 10 min in TBS-T before incubation with the primary antibody overnight at 4° C. Membrane was rinsed 3 times 10 min with TBS-T and then incubated with the secondary antibody for 45 min at room temperature (RT). […] Quantifications of protein expression levels were performed with ImageJ Software (NIH). […]

AICD = AICD by Western blot in SY5Y-APP695WT cells; assay type: cell-based, human; conditions: AICD increase compared to chloroquine ([AICD]compound/[AICD]CQ) at 3 μM; mean of at least three experiments
Source text: as §2, §3, §4, §5

| Compound | IC50 (Aβ1-40 peptide secretion) | IC50 (Aβ1-42 peptide secretion) | CTFα vs CQ (3 μM) (CTFα) | AICD vs CQ (3 μM) (AICD) |
| --- | --- | --- | --- | --- |
| CN(C)Cc1ccn(-c2ccc(NCCCN3CCCCC3)c(OCCN3CCCCC3)c2)c1 [Compound 51, 4-(3-[(Dimethylamino)methyl]-1H-pyrrol-1-yl)-2-[2-(piperidin-1-yl)ethoxy]-N-[3-(piperidin-1-yl)propyl]aniline] | 5000 ± 900 nM | 6500 ± 2000 nM | 3.6 | 2.0 |
| CN(C)Cc1ccccc1-c1cccc(OCCN2CCCCC2)c1 [Compound 41, N,N-Dimethyl-1-(3′-(2-(piperidin-1-yl)ethoxy)-[1,1′-biphenyl]-2-yl)methanamine] | 1500 ± 300 nM | 1200 ± 300 nM | 0.6 | 0.7 |
| CN(C)Cc1ccccc1-c1ccc(NCCN2CCCCC2)c(OCCN2CCCCC2)c1 [Compound 33, 2′-((Dimethylamino)methyl)-3-(2-(piperidin-1-yl)ethoxy)-N-(2-(piperidin-1-yl)ethyl)-[1,1′-biphenyl]-4-amine] | 1400 ± 500 nM | 1200 ± 600 nM | 5.0 | 4.8 |
| CN(C)Cc1ccccc1-c1ccc(NCCN2CCCCC2)c(OCCCCN2CCCCC2)c1 [Compound 35, 2′-((Dimethylamino)methyl)-3-(4-(piperidin-1-yl)butoxy)-N-(2-(piperidin-1-yl)ethyl)-[1,1′-biphenyl]-4-amine] | 1600 ± 100 nM | 1600 ± 300 nM | 4.4 | 4.8 |
| c1cn(-c2ccc(NCCCN3CCCCC3)c(OCCN3CCCCC3)c2)cc1CN1CCCCC1 [Compound 52, 2-[2-(Piperidin-1-yl)ethoxy]-N-[3-(piperidin-1-yl)propyl]-4-[3-(piperidin-1-ylmethyl)-1H-pyrrol-1-yl]aniline] | 3700 ± 1300 nM | 5000 ± 300 nM | 3.3 | 1.2 |
| c1cc(-c2ccc(NCCCN3CCCCC3)c(OCCN3CCCCC3)c2)ccc1CN1CCCCC1 [Compound 24, 2-[2-(Piperidin-1-yl)ethoxy]-N-[3-(piperidin-1-yl)propyl]-4-[4-(piperidin-1-ylmethyl)phenyl]aniline] | 2100 ± 600 nM | 3300 ± 2100 nM | 2.6 | 2.5 |
| CN(C)Cc1ccc(-c2ccc(NCCCN3CCCCC3)c(OCCN3CCCCC3)c2)cc1 [Compound 25, 4-(4-[(Dimethylamino)methyl]phenyl)-2-[2-(piperidin-1-yl)ethoxy]-N-[3-(piperidin-1-yl)propyl]aniline] | 1500 ± 100 nM | 1700 ± 400 nM | 2.1 | 2.5 |
| c1ccc(-c2ccc(NCCCN3CCCCC3)c(OCCN3CCCCC3)c2)cc1 [Compound 37, 3-(2-(Piperidin-1-yl)ethoxy)-N-(3-(piperidin-1-yl)propyl)-[1,1′-biphenyl]-4-amine] | 5200 ± 100 nM | 4000 ± 400 nM | 2.4 | 2.1 |
| CN1CCN(Cc2ccccc2-c2ccc(NCCCN3CCCCC3)c(OCCN3CCCCC3)c2)CC1 [Compound 29, 4-(2-[(4-Methylpiperazin-1-yl)methyl]phenyl)-2-[2-(piperidin-1-yl)ethoxy]-N-[3-(piperidin-1-yl)propyl]aniline] | 2600 ± 200 nM | 2700 ± 800 nM | 5.1 | 3.7 |
